Measurements taken from patent US5661165A, “((4-phenyl-1,2,5-thiadiazol-3-yl)oxy)methyl ester thiocyanic acid compounds, compositions containing them and their use as antimicrobial and marine antifouling agents” (The Dow Chemical Company, priority 1996, dated 1997).
≈ marks a conversion by molar mass, not a printed value. Like-named read-outs stand apart in the source and are kept apart here.

Key:
Candida albicans (Ca) = test: MIC against yeast/fungi (malt yeast agar); format: cell-based, Candida albicans ATCC 10231; settings: 30° C., yeast read after 48 h, read-out: Minimum Inhibitory Concentration, Ca
Experimental: (§1) The antimicrobial activity of the compounds of the present invention is set forth as the minimum inhibitory concentration (MIC) for the active compounds and is determined for nine (9) bacteria, using nutrient agar, and seven (7) yeast and fungi, using malt yeast agar. This determination is conducted using a one percent solution of the test compound prepared in a mixture of acetone and water.
(§2) Malt yeast agar is prepared by adding 3 g yeast extract and 45 g malt agar per liter of deionized water. The specific agar is dispensed in 30 mL aliquots into 25×200 mm test tubes, capped and autoclaved for 15 minutes at 115° C.
(§3) The test tubes containing the agar are cooled in a water bath until the temperature of the agar is 48° C. Then, an appropriate amount of the one percent solution of the test compound is added (except in the controls where no compound is added) to the respective test tubes so that the final concentrations are 500, 250, 100, 50, 25, 10, 5, 2.5, 1.0 and zero parts per million of the test compound in the agar, thus having a known concentration of test compound dispersed therein. The contents of the test tubes are then transferred to respective petri plates. After drying for 24 hours, the petri plates containing nutrient agar are inoculated with bacteria and those containing malt yeast agar are inoculated with yeast and fungi.
(§4) The inoculation with the yeast and fungi is accomplished as follows. Cultures of yeast and fungi are incubated for seven days on malt yeast agar at 30° C. These cultures are used to prepare suspensions by the following procedure. A suspension of each organism is prepared by adding 10 mL of sterile saline and 10 microliters of octylphenoxy polyethoxy ethanol to the agar slant of yeast or fungi. The sterile saline/octylphenoxy polyethoxy ethanol solution is then agitated with a sterile swab to suspend the microorganism grown on the slant. Each resulting suspension is diluted into sterile saline (1 part suspension to 9 parts sterile saline). Aliquots of these dilutions are placed in individual wells of Steer's Replicator and petri plates inoculated as previously described. The petri plates are incubated at 30° C. and read after 48 hours for yeast and 72 hours for fungi.
(§5) Table I lists the bacteria, yeast and fungi used in the MIC test described above along with their respective American Type Culture Collection (ATCC) identification numbers.

[1] = test system: Staphylococcus aureus (Sa); test: MIC against bacteria (nutrient agar); format: cell-based, Staphylococcus aureus ATCC 6538; settings: 30° C., 48 h, read-out: Minimum Inhibitory Concentration, Sa
[2] = test system: Klebsiella pneumoniae (Kp); test: MIC against bacteria (nutrient agar); format: cell-based, Klebsiella pneumoniae ATCC 8308; settings: 30° C., 48 h, read-out: Minimum Inhibitory Concentration, Kp
Escherichia coli (Ec) = test: MIC against bacteria (nutrient agar); format: cell-based, Escherichia coli ATCC 11229; settings: 30° C., 48 h, read-out: Minimum Inhibitory Concentration, Ec
[3] = test system: Pencillium chrysogenum (Pc); test: MIC against yeast/fungi (malt yeast agar); format: cell-based, Pencillium chrysogenum ATCC 9480; settings: 30° C., fungi read after 72 h, read-out: Minimum Inhibitory Concentration, Pc
Experimental: as §1, §2, §3, §4, §5

[4] = test system: Psuedomonas aeruginosa (Pa); test: MIC against bacteria (nutrient agar); format: cell-based, Psuedomonas aeruginosa ATCC 10145; settings: 30° C., 48 h, read-out: Minimum Inhibitory Concentration, Pa
Experimental: as §1
Nutrient agar is prepared at pH 6.8, representing a neutral medium, and at pH 8.2, representing an alkaline medium. The nutrient agars are prepared by adding 23 g of nutrient agar to one-liter of deionized water. In addition, the alkaline medium is prepared by adjusting a 0.04M solution of N-[tris-(hydroxymethyl)methyl]-glycine buffered deionized water with concentrated sodium hydroxide to a pH of 8.5.
as §3
The inoculation with bacteria is accomplished by using the following procedure. Twenty-four hour-cultures of each of the bacteria are prepared by incubating the respective bacteria in tubes containing nutrient broth for 24 hours at 30° C. in a shaker. Dilutions of each of the 24 hour-cultures are made so that nine separate suspensions (one for each of the nine test bacteria) are made, each containing 10^8 colony forming units (CFU) per mL of suspension of a particular bacteria. Aliquots of 0.3 mL of each of the bacterial suspensions are used to fill the individual wells of Steer's Replicator. For each microbial suspension, 0.3 mL was used to fill three wells (i.e., three wells of 0.3 mL each) so that for the nine different bacteria, 27 wells are filled. The Steer's Replicator is then used to inoculate both the neutral and alkaline pH nutrient agar petri plates.
The inoculated petri plates are incubated at 30° C. for 48 hours and then read to determine if the test compound which is incorporated into the agar prevented growth of the respective bacteria.
as §5

Bacillus subtilis (Bs) = test: MIC against bacteria (nutrient agar); format: cell-based, Bacillus subtilis ATCC 8473; settings: 30° C., 48 h, read-out: Minimum Inhibitory Concentration, Bs
[5] = test system: Saccharomyces cerevisiae (Sc); test: MIC against yeast/fungi (malt yeast agar); format: cell-based, Saccharomyces cerevisiae ATCC 4105; settings: 30° C., yeast read after 48 h, read-out: Minimum Inhibitory Concentration, Sc
Experimental: as §1, §2, §3, §4, §5

Trichoderma viride (Tv) = test: MIC against yeast/fungi (malt yeast agar); format: cell-based, Trichoderma viride ATCC 8678; settings: 30° C., fungi read after 72 h, read-out: Minimum Inhibitory Concentration, Tv
Experimental: as §1, §2, §3, §4, §5

[6] = test system: Salmonella choleraesuis (Sc); test: MIC against bacteria (nutrient agar); format: cell-based, Salmonella choleraesuis ATCC 10708; settings: Salmonella enterica, 30° C., 48 h, read-out: Minimum Inhibitory Concentration, Sc
[7] = test system: Aureobasidium pullulan (Ap); test: MIC against yeast/fungi (malt yeast agar); format: cell-based, Aureobasidium pullulan ATCC 16622; settings: 30° C., yeast 48 h / fungi 72 h, read-out: Minimum Inhibitory Concentration, Ap
Experimental: as §1, §2, §3, §4, §5

[8] = test system: Psuedomonas aeruginosa (PRD-10); test: MIC against bacteria (nutrient agar); format: cell-based, Psuedomonas aeruginosa ATCC 15442; settings: 30° C., 48 h, read-out: Minimum Inhibitory Concentration, PRD
Fusarium oxysporum (Fo) = test: MIC against yeast/fungi (malt yeast agar); format: cell-based, Fusarium oxysporum ATCC 48112; settings: 30° C., fungi read after 72 h, read-out: Minimum Inhibitory Concentration, Fo
Experimental: as §1, §2, §3, §4, §5

[9] = test system: Enterobacter aerogenes (Ea); test: MIC against bacteria (nutrient agar); format: cell-based, Enterobacter aerogenes ATCC 13048; settings: Klebsiella aerogenes, 30° C., 48 h, read-out: Minimum Inhibitory Concentration, Ea
Aperigillus niger (An) = test: MIC against yeast/fungi (malt yeast agar); format: cell-based, Aperigillus niger ATCC 16404; settings: 30° C., fungi read after 72 h, read-out: Minimum Inhibitory Concentration, An
Experimental: as §1, §2, §3, §4, §5

Proteus vulgaris (PV) = test: MIC against bacteria (nutrient agar); format: cell-based, Proteus vulgaris ATCC 881; settings: 30° C., 48 h, read-out: Minimum Inhibitory Concentration, Pv

| Compound | MIC (Candida albicans (Ca)) [mg/L] | MIC ([1]; pH 6.8, nutrient agar) [mg/L] | MIC ([1]; pH 8.2, nutrient agar) [mg/L] | MIC ([2]; pH 6.8, nutrient agar) [mg/L] | MIC ([2]; pH 8.2, nutrient agar) [mg/L] | MIC (Escherichia coli (Ec); pH 6.8, nutrient agar) [mg/L] | MIC (Escherichia coli (Ec); pH 8.2, nutrient agar) [mg/L] | MIC [3] [mg/L] | MIC ([4]; pH 6.8, nutrient agar) [mg/L] | MIC ([4]; pH 8.2, nutrient agar) [mg/L] | MIC (Bacillus subtilis (Bs); pH 6.8, nutrient agar) [mg/L] | MIC (Bacillus subtilis (Bs); pH 8.2, nutrient agar) [mg/L] | MIC [5] [mg/L] | MIC (Trichoderma viride (Tv)) [mg/L] | MIC ([6]; pH 6.8, nutrient agar) [mg/L] | MIC ([6]; pH 8.2, nutrient agar) [mg/L] | MIC [7] [mg/L] | MIC ([8]; pH 6.8, nutrient agar) [mg/L] | MIC ([8]; pH 8.2, nutrient agar) [mg/L] | MIC (Fusarium oxysporum (Fo)) [mg/L] | also measured |
| --- | --- | --- | --- | --- | --- | --- | --- | --- | --- | --- | --- | --- | --- | --- | --- | --- | --- | --- | --- | --- | --- |
| N#CSCOc1nsnc1-c1cccc(F)c1 [III, ((4(3Fluorophenyl)-1,2,5-thiadiazol-3-yl)oxy)methyl ester thiocyanic acid] | 5 (≈ 18.7 µM) | < 10 | 25 (≈ 93.5 µM) | 500 (≈ 1870 µM) | 500 (≈ 1870 µM) | 500 (≈ 1870 µM) | > 500 | < 1 | > 500 | > 500 | < 10 | < 10 | < 1 | 500 (≈ 1870 µM) | 500 (≈ 1870 µM) | > 500 | < 1 | > 500 | > 500 | 100 (≈ 374 µM) | MIC ([9]; pH 6.8, nutrient agar): > 500 mg/L; MIC ([9]; pH 8.2, nutrient agar): 500 mg/L (≈ 1870 µM); MIC (Aperigillus niger (An)): < 1 mg/L; MIC (Proteus vulgaris (PV); pH 6.8, nutrient agar): > 500 mg/L; MIC (Proteus vulgaris (PV); pH 8.2, nutrient agar): 500 mg/L (≈ 1870 µM) |
| N#CSCOc1nsnc1-c1ccc(F)cc1 [IV, ((4(4-Fluorophenyl)-1,2,5-thiadiazol-3-yl)oxy)methyl ester thiocyanic acid] | 5 (≈ 18.7 µM) | < 10 | 25 (≈ 93.5 µM) | 500 (≈ 1870 µM) | 500 (≈ 1870 µM) | 500 (≈ 1870 µM) | > 500 | < 1 | > 500 | > 500 | < 10 | < 10 | 2.5 (≈ 9.35 µM) | 500 (≈ 1870 µM) | 500 (≈ 1870 µM) | > 500 | 2.5 (≈ 9.35 µM) | > 500 | > 500 | 5 (≈ 18.7 µM) | MIC ([9]; pH 6.8, nutrient agar): > 500 mg/L; MIC ([9]; pH 8.2, nutrient agar): 500 mg/L (≈ 1870 µM); MIC (Aperigillus niger (An)): 2.5 mg/L (≈ 9.35 µM); MIC (Proteus vulgaris (PV); pH 6.8, nutrient agar): > 500 mg/L; MIC (Proteus vulgaris (PV); pH 8.2, nutrient agar): 500 mg/L (≈ 1870 µM) |
